Experimental findings from patent US20030082625A1, “Method for the pretreatment of a surface for the reduction of non-specific binding by chemical entities” (priority 2001, published 2003) are described below.

A short description of data set [1]: Non-specific binding (NSB) of drugs to ultrafiltration membrane filter, regenerated cellulose (Millipore Ultrafree-MC UFC 3LGC00, 10 k NMWL). In kind it is physicochemical. Conditions: for NSB (%) Control / NSB (%) Tween 80 / NSB (%) BAK / NSB (%) Serum / NSB (%) 0.5% Tween / NSB (%) 0.5% BAK / NSB (%) 1% Tween / NSB (%) 1% BAK / NSB (%) 2% Tween / NSB (%) 2% BAK / NSB (%) 5% Tween / NSB (%) 5% BAK / NSB (%) SLS: regenerated cellulose; for NSB (%) Tween 80: pretreatment with 0.5% Tween 80; for NSB (%) BAK: pretreatment with 0.5% benzalkonium chloride; for NSB (%) Serum: pretreatment with human serum; for NSB (%) RC: regenerated cellulose membrane, drug concentration 10 uM; for NSB (%) 0.5% Tween: pretreatment 0.5% Tween 80; for NSB (%) 0.5% Tween / NSB (%) 1% Tween / NSB (%) 2% Tween / NSB (%) 5% Tween: drug 5 uM; for NSB (%) 0.5% BAK: pretreatment 0.5% benzalkonium chloride; for NSB (%) 0.5% BAK / NSB (%) 1% BAK / NSB (%) 2% BAK / NSB (%) 5% BAK: drug 10 uM; for NSB (%) 1% Tween: pretreatment 1% Tween 80; for NSB (%) 1% BAK: pretreatment 1% benzalkonium chloride; for NSB (%) 2% Tween: pretreatment 2% Tween 80; for NSB (%) 2% BAK: pretreatment 2% benzalkonium chloride; for NSB (%) 5% Tween: pretreatment 5% Tween 80; for NSB (%) 5% BAK: pretreatment 5% benzalkonium chloride; for NSB (%) SLS: pretreatment with 0.5% sodium lauryl sulfate. As to the method: (§1) Various experiments were performed using the following reagents, surfactants and reservoirs (also comprising ultrafiltration units): human serum, pH 7.4 phosphate buffered saline (PBS), drug solution (i.e. compound) in serum at a concentration of 1-50 μM, and drug solution in PBS at a concentration of 1-50 μM were used as reagents. Surfactant solutions were 0.01-20% Tween 80 (polyoxyethylene 20 sorbitan monooleate) in PBS as neutral solution, 0.01-20% Benzalkonium chloride (BAK) in PBS as cationic solution, 0.01-20% Sodium lauryl sulfate (SLS) in PBS as anionic solution. An ultrafiltration reservoir (Millipore, Ultrafree-MC) comprising regenerated cellulose (UFC 3LGC00, 10 k NMWL) or polyethersulfone (UFC 3BSC00, 10 k NMWL) was used.
(§2) The upper ultrafiltration cup was connected to the reservoir tube and 25 μL surfactant solution was added to each well. After bedewing for 5 min, the reservoir tube containing the ultrafiltration cup was centrifuged for 10 min at 3000 g and room temperature.
(§3) 200 μL of PBS was added to each ultrafiltration cup and equilibrated for 30 min. Remaining PBS was removed from the ultrafiltration cup by gentle tapping the cup. The upper ultrafiltration cup was reconnected to a new reservoir tube, and 400 μL drug solution (1-50 μM) in serum or PBS was applied and equilibrated for 1 hr at room temperature.
(§4) The ultrafiltration tube was centrifuged for 18 min at 3000 g at room temperature. 50 μL sample was taken from the receiver (filtrate) and donor (drug solution in serum or PBS) for bioanalysis. Non-specific binding was calculated as follows:
(§5) NSB=(Cf1-Cf2)/Cf1, where NSB: non specific binding to membrane filter at pH 7.4 isotonic PBS, Cf1: free drug before filtration, and Cf2: free drug in the filtrate after filtration

Data set [2] in a line: Non-specific binding (NSB) of drugs to ultrafiltration membrane filter, polyethersulfone (Millipore Ultrafree-MC UFC 3BSC00, 10 k NMWL). It is filed as physicochemical. To be noted: no pretreatment, drug concentration 10 uM. On the procedure:
as §1, §2, §3, §4, §5

Where [3] appears, read: no surfactant pretreatment, drug concentration 5 uM, pH 7.4 PBS.
Setting [4] is: no pretreatment, drug concentration 50 uM.

In the case of `Cc1cc(=O)n(-c2ccccc2)n1C` [Antipyrine], the “NSB (%) Control” value in data set [1] (setting [3]) was 10%. Further, in data set [1] (drug concentration 5 uM), the “NSB (%) Tween 80” value is recorded as 0% and the “NSB (%) BAK” value was found to be 0%.

As for `Cn1c(=O)c2c(ncn2C)n(C)c1=O` [Caffeine], the “NSB (%) Control” value in data set [1] (setting [3]) is 17%. Further, in data set [1] (drug concentration 5 uM), the “NSB (%) Tween 80” value was 0% and the “NSB (%) BAK” value stood at 0%.

For `COc1cc([C@@H]2c3cc4c(cc3[C@@H](O[C@@H]3O[C@@H]5CO[C@@H](C)O[C@H]5[C@H](O)[C@H]3O)[C@H]3COC(=O)[C@H]23)OCO4)cc(OC)c1O` [Etoposide], the “NSB (%) Control” value in data set [1] (setting [4]) is listed as 91%. Further, the “NSB (%) Control” value in data set [1] (setting [3]) came to 91%. In data set [1] (drug concentration 5 uM), the “NSB (%) Tween 80” value was 23.1% and the “NSB (%) BAK” value is recorded as 28.3%. Further, the “NSB (%) Serum” value in data set [1] (drug concentration 50 uM) came to 93%. In data set [1] (no pretreatment), the “NSB (%) RC” value was 91%. Further, the “NSB (%) PES” value in data set [2] is 93%.

On to `C[C@]12CCC(=O)C=C1CC[C@@H]1[C@@H]2[C@@H](O)C[C@@]2(C)[C@H]1CC[C@]2(O)C(=O)CO` [Hydrocortisone], for which the “NSB (%) Control” value in data set [1] (setting [4]) stood at 87%. Moreover, in data set [1] (setting [3]), the “NSB (%) Control” value is reported as 87%. Also, in data set [1], the “NSB (%) 0.5% Tween” value came out at 52%, the “NSB (%) 0.5% BAK” value is given as 30%, the “NSB (%) 1% Tween” value is reported as 35% and the “NSB (%) 1% BAK” value was determined as 22%. In data set [1], the “NSB (%) 2% Tween” value came to 33%, the “NSB (%) 2% BAK” value was determined as 16%, the “NSB (%) 5% Tween” value is 30% and the “NSB (%) 5% BAK” value was determined as 14%. Also, in data set [1] (drug concentration 5 uM), the “NSB (%) Tween 80” value was 21.1% and the “NSB (%) BAK” value came to 25%. In data set [1] (drug concentration 50 uM), the “NSB (%) SLS” value turned out to be 62% and the “NSB (%) Serum” value is listed as 84%. For the same compound, in data set [1] (no pretreatment), the “NSB (%) RC” value is listed as 87%. Further, the “NSB (%) PES” value in data set [2] was determined as 71%.

With `CC(C)Cc1ccc(C(C)C(=O)O)cc1` (centres unmarked) [Ibuprofen], the “NSB (%) Control” value in data set [1] (setting [3]) stood at 29%. Also, the “NSB (%) Tween 80” value in data set [1] (drug concentration 5 uM) is given as 2.3%.

As to `CC(C(=O)O)c1cccc(C(=O)c2ccccc2)c1` (centres unmarked) [Ketoprofen], the “NSB (%) Control” value in data set [1] (setting [3]) is 34%. For the same compound, the “NSB (%) Tween 80” value in data set [1] (drug concentration 5 uM) was 4.1%.

For `CC(C)NCC(O)COc1cccc2ccccc12` (centres unmarked) [Propranolol], the “NSB (%) Control” value in data set [1] (setting [4]) was found to be 91%. Besides, the “NSB (%) Control” value in data set [1] (setting [3]) is recorded as 91%. Besides, in data set [1], the “NSB (%) 0.5% Tween” value came out at 66%, the “NSB (%) 0.5% BAK” value is listed as 14%, the “NSB (%) 1% Tween” value stood at 65% and the “NSB (%) 1% BAK” value came out at 15%. In addition, in data set [1], the “NSB (%) 2% Tween” value is 60%, the “NSB (%) 2% BAK” value was 5%, the “NSB (%) 5% Tween” value is given as 52% and the “NSB (%) 5% BAK” value came out at 10%. Besides, in data set [1] (drug concentration 5 uM), the “NSB (%) Tween 80” value was found to be 46.5% and the “NSB (%) BAK” value worked out at 13%. Besides, in data set [1] (drug concentration 50 uM), the “NSB (%) SLS” value was 84% and the “NSB (%) Serum” value was found to be 90%. Moreover, the “NSB (%) RC” value in data set [1] (no pretreatment) amounted to 91%. The “NSB (%) PES” value in data set [2] came to 69%.

On to `Cn1c(=O)c2[nH]cnc2n(C)c1=O` [Theophylline], for which, in data set [1] (setting [3]), the “NSB (%) Control” value came to 8%. Also, in data set [1] (drug concentration 5 uM), the “NSB (%) Tween 80” value is on record as 0% and the “NSB (%) BAK” value is given as 0%.

Consider `COc1ccc(CCN(C)CCCC(C#N)(c2ccc(OC)c(OC)c2)C(C)C)cc1OC` (centres unmarked) [Verapamil], for which, in data set [1], the “NSB (%) 0.5% BAK” value came out at 43%, the “NSB (%) 1% BAK” value was found to be 34%, the “NSB (%) 2% BAK” value is 25% and the “NSB (%) 5% BAK” value was 12%.

`CC[C@]1(O)C[C@@H]2CN(CCc3c([nH]c4ccccc34)[C@@](C(=O)OC)(c3cc4c(cc3OC)N(C)[C@H]3[C@@](O)(C(=O)OC)[C@H](OC(C)=O)[C@]5(CC)C=CCN6CC[C@]43[C@@H]65)C2)C1` [Vinblastine]: in data set [1] (setting [3]), the “NSB (%) Control” value is reported as 95%. Further, in data set [1], the “NSB (%) 0.5% BAK” value came to 82%, the “NSB (%) 1% BAK” value was 79%, the “NSB (%) 2% BAK” value came out at 68% and the “NSB (%) 5% BAK” value is reported as 59%. Moreover, in data set [1] (drug concentration 5 uM), the “NSB (%) Tween 80” value came to 95.2% and the “NSB (%) BAK” value is recorded as 64%. Moreover, the “NSB (%) RC” value in data set [1] (no pretreatment) is 95%. In addition, in data set [2], the “NSB (%) PES” value came to 95%.
